Experimental data from patent US7674795B2, “Fluorene derivatives, composition containing said derivatives and the use thereof” (Aventis Pharma SA, priority 2005, dated 2010).
Structures can show the parent of a compound that is named as a salt.

These compounds were tested against Hsp82 (Saccharomyces cerevisiae, UniProt P02829) (assay: PK/LDH enzyme coupling test of the ATPase activity of Hsp82 (NADH decrease at 340 nm)). Settings: 1 μM Hsp82, 250 μM ATP, 37° C., pyruvate kinase/lactate dehydrogenase coupling, read-out: Hsp82 ATPase IC50.
Chain of Hsp82 (P02829 whole entry): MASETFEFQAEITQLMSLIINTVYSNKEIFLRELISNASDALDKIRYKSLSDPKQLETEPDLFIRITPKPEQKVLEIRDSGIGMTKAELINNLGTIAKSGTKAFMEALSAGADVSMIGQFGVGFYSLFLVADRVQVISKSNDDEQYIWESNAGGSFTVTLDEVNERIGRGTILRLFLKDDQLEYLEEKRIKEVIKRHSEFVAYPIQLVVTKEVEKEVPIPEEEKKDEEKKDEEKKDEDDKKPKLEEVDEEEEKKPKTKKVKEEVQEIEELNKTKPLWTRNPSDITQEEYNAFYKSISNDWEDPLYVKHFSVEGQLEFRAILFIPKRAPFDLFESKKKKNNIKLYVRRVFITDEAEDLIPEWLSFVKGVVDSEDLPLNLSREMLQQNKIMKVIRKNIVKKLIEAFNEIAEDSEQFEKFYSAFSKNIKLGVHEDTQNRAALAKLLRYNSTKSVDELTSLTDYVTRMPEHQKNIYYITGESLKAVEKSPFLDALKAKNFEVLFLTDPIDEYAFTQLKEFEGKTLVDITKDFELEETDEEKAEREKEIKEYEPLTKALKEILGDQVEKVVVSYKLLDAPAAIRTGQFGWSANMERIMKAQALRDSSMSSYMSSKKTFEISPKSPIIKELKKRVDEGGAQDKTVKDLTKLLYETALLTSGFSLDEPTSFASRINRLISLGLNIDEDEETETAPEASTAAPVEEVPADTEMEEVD
Format: biochemical
Text: The formation of ADP due to the ATPase activity of Hsp82 was utilized for developing another method of evaluating the enzymatic activity of this enzyme by application of an enzyme coupling system employing pyruvate kinase (PK) and lactate dehydrogenase (LDH). In this spectrophotometric method of the kinetic type, the PK catalyses the formation of ATP and of pyruvate starting from phosphoenol-pyruvate (PEP) and the ADP produced by HSP82. The pyruvate that formed, an LDH substrate, is then converted to lactate in the presence of NADH. In this case, the decrease in the concentration of NADH, measured by the decrease in absorbance at wavelength of 340 nm, is proportional to the concentration of ADP produced by HSP82. […] This mixture is preincubated at 37° C. for 30 min before adding 3.77 units of LDH and 3.77 units of PK. The reaction is started by adding the product to be evaluated, in variable concentrations, and of Hsp82, at a concentration of 1 μM. The enzymatic activity of Hsp82 is then measured continuously in a microplate reader at 37° C., at wavelength of 340 nm. The initial reaction rate is found by measuring the slope of the tangent at the origin of the recorded curve. The enzymatic activity is expressed as μM of ADP formed per minute. The effect of the various products tested is expressed as percentage of inhibition of ATPase activity, using the following codes: • A: […]

SMILES | IC50 [µM]
O=C(NC1c2ccccc2-c2c(-c3nc4ccccc4[nH]3)cccc21)c1cccc2ncccc12 (racemic) [Example 83, [4-(1H-benzimidazol-2-yl)-9H-fluoren-9(R,S)-yl]amide of quinoline-5-carboxylic acid] | 10 to 100
O=C(NCc1ccncc1)C1c2ccccc2-c2c(-c3nc4cnccc4[nH]3)cccc21 (racemic) [Example 4, hydrochloride of the (pyridin-4-ylmethyl)-amide of 4-(3H-imidazo[4,5-c]pyridin-2-yl)-9H-fluorene-9(R,S)-carboxylic acid] | 10 to 100
O=C(O)C1c2ccccc2-c2c(-c3nc4cnccc4[nH]3)cccc21 (racemic) [Example 29, hydrochloride of 4-(1H-imidazo[4,5-c]pyridin-2-yl)-9H-fluorene-9(R,S)-carboxylic acid] | 10 to 100
NC(=O)NN=C1c2ccccc2-c2c1cccc2-c1nc2ccncc2[nH]1 [Example 30, trifluoroacetate of 4-(3H-imidazo[4,5-c]pyridin-2-yl)-fluoren-9-one semicarbazone (Z, E)] | 10 to 100
O=C(NC1c2ccccc2-c2c(-c3nc4ccncc4[nH]3)cccc21)c1ccc2[nH]c(=O)[nH]c2c1 (racemic) [Example 43, [4-(3H-imidazo[4,5-c]pyridin-2-yl)-9H-fluoren-9(R,S)-yl]amide of 2-oxo-2,3-dihydro-1H-benzimidazole-5-carboxylic acid] | 10 to 100
O=C(NC1c2ccccc2-c2c(-c3nc4cnccc4[nH]3)cccc21)c1nccc2ccccc12 (racemic) [Example 64, [4-(3H-imidazo[4,5-c]pyridin-2-yl)-9H-fluoren-9(R,S)-yl]amide of isoquinoline-1-carboxylic acid] | 10 to 100
CN(C)c1cccc2c(S(=O)(=O)NC3c4ccccc4-c4c(-c5nc6ccncc6[nH]5)cccc43)cccc12 (racemic) [Example 52, [4-(3H-imidazo[4,5-c]pyridin-2-yl)-9H-fluoren-9(R,S)-yl]amide trifluoroacetate of 5-dimethylamino-naphthalene-1-sulphonic acid] | 10 to 100
ON=C1c2ccccc2-c2c1cccc2-c1nc2ccc(F)cc2[nH]1 (racemic) [Example 70, 4-(6-fluoro-1H-benzimidazol-2-yl)-fluoren-9-one oxime (Z,E)] | 1 to 10
c1ccc(CNN=C2c3ccccc3-c3c2cccc3-c2nc3cnccc3[nH]2)cc1 (mixture of isomers) [Example 8, N-benzyl-N′-[4-(1H-imidazo[4,5-c]pyridin-2-yl)-fluoren-9-ylidene]-hydrazine, 55/45 mixture of E and Z isomers] | 1 to 10
CC(=O)CCC(=O)NC1c2ccccc2-c2c(-c3nc4ccncc4[nH]3)cccc21 (racemic) [Example 49, hydrochloride of [4-(3H-imidazo[4,5-c]pyridin-2-yl)-9H-fluoren-9(R,S)-yl]amide of 4-oxo-pentanoic acid] | 10 to 100
NC(=O)[C@H](N)CC(=O)NC1c2ccccc2-c2c(-c3nc4cnccc4[nH]3)cccc21 (mixture of isomers) [Example 62, (R)-2-amino-N4-[4-(3H-imidazo[4,5-c]pyridin-2-yl)-9H-fluoren-9(R,S)-yl]-succinamide] | 1 to 10
Cc1cnccc1C(=O)NC1c2ccccc2-c2c(-c3nc4ccncc4[nH]3)cccc21 (racemic) [Example 96, N-[4-(3H-imidazo[4,5-c]pyridin-2-yl)-9H-fluoren-9(R,S)-yl]-3-methyl-isonicotinamide] | 1 to 10

Results, then the compound that gave them:

IC50 [µM] | SMILES
1 to 10 | O=C(NC1c2ccccc2-c2c(-c3nc4ccncc4[nH]3)cccc21)c1cc(O)ncn1 (stereo not shown) [Example 93, [4-(3H-imidazo[4,5-c]pyridin-2-yl)-9H-fluoren-9-yl]amide of 6-hydroxypyrimidine-4-carboxylic acid]
1 to 10 | O=C(NC1c2ccccc2-c2c(-c3nc4ccc(F)cc4[nH]3)cccc21)c1cccc2ncccc12 (racemic) [Example 84, [4-(6-fluoro-1H-benzimidazol-2-yl)-9H-fluoren-9(R,S)-yl]amide of quinoline-5-carboxylic acid]
1 to 10 | O=C(NC1c2ccccc2-c2c(-c3nc4ccncc4[nH]3)cccc21)c1cc(-c2ccco2)nc2ccccc12 (racemic) [Example 113, [4-(3H-imidazo[4,5-c]pyridin-2-yl)-9H-fluoren-9(R,S)-yl]amide of 2-(furan-2-yl)-quinoline-4-carboxylic acid]
1 to 10 | O=C(NC1c2ccccc2-c2c(-c3nc4ccncc4[nH]3)cccc21)c1cc[n+]([O-])cc1 (racemic) [Example 81, N-[4-(3H-imidazo[4,5-c]pyridin-2-yl)-9H-fluoren-9(R,S)-yl]-1-oxyisonicotinamide]
< 1 | O=C(NC1c2ccccc2-c2c(-c3nc4ccncc4[nH]3)cccc21)c1c(Br)cnc2[nH]cnc12 (racemic) [Example 118, [4-(3H-imidazo[4,5-c]pyridin-2-yl)-9H-fluoren-9(R,S)-yl]amide of 6-bromo-3H-imidazo[4,5-b]pyridine-7-carboxylic acid]
1 to 10 | NC(=O)c1cccc(C(=O)NC2c3ccccc3-c3c(-c4nc5ccncc5[nH]4)cccc32)c1 (racemic) [Example 126, N-[4-(3H-imidazo[4,5-c]pyridin-2-yl)-9H-fluoren-9(R,S)-yl]isophthalamide]
1 to 10 | Nc1ccc2c(C(=O)NC3c4ccccc4-c4c(-c5nc6cnccc6[nH]5)cccc43)cccc2c1 (racemic) [Example 54, [4-(3H-imidazo[4,5-c]pyridin-2-yl)-9H-fluoren-9(R,S)-yl]amide of 6-amino-naphthalene-1-carboxylic acid]
1 to 10 | O=C(NC1c2ccccc2-c2c(-c3nc4ccncc4[nH]3)cccc21)c1ccnc(O)n1 (stereo not shown) [Example 89, [4-(3H-imidazo[4,5-c]pyridin-2-yl)-9H-fluoren-9-yl]amide of 2-hydroxypyrimidine-4-carboxylic acid]
1 to 10 | O=C(NC1c2ccccc2-c2c(-c3nc4ccc(O)cc4[nH]3)cccc21)c1ccncc1 (racemic) [Example 117, N-[4-(6-hydroxy-1H-benzimidazol-2-yl)-9H-fluoren-9(R,S)-yl]-isonicotinamide]
1 to 10 | Cc1cc(C(=O)NC2c3ccccc3-c3c(-c4nc5ccncc5[nH]4)cccc32)cc(O)n1 (racemic) [Example 121, 2-hydroxy-N-[4-(3H-imidazo[4,5-c]pyridin-2-yl)-9H-fluoren-9(R,S)-yl]-6-methyl-isonicotinamide]
1 to 10 | Nc1nc(CC(=O)NC2c3ccccc3-c3c(-c4nc5cnccc5[nH]4)cccc32)cs1 (racemic) [Example 24, trifluoroacetate of 2-(2-amino-thiazol-4-yl)-N-[4-(3H-imidazo[4,5-c]pyridin-2-yl)-9H-fluoren-9(R,S)-yl]-acetamide]
1 to 10 | O=C(NC1c2ccccc2-c2c(-c3nc4ccncc4[nH]3)cccc21)c1ccc2cc[nH]c2c1 (racemic) [Example 46, [4-(3H-imidazo[4,5-c]pyridin-2-yl)-9H-fluoren-9(R,S)-yl]amide of 1H-indole-6-carboxylic acid]
< 1 | O=C(NC1c2ccccc2-c2c(-c3nc4cnccc4[nH]3)cccc21)c1ccnc2ccccc12 (racemic) [Example 67, [4-(3H-imidazo[4,5-c]pyridin-2-yl)-9H-fluoren-9(R,S)-yl]amide of quinoline-4-carboxylic acid]
